{
  "source": "patent US10822376B2",
  "about": "“Biologically active peptides” (Baxalta Incorporated, priority 2008, dated 2020)",
  "key": {"in vitro [1]": {"experiment": "in vitro", "details": "human, pH 7.4"}, "FIX−/− mice": {"system": "FIX−/− mice", "experiment": "Tail clip assay in FIX−/− mice (blood loss, survival)", "assay_type": "in vivo, mouse"}, "FVIII−/− (E17) mice": {"system": "FVIII−/− (E17) mice", "experiment": "Tail clip assay in FVIII−/− mice (blood loss, survival)", "experimental": "Groups of mice, typically 8-16 male and female exon 17 FVIII knockout mice with severe hemorrhagic diathesis, receive a single i.v. (tail vein), i.p. or s.c. bolus injection (10 ml/kg body weight). Two minutes before tail clip, animals are anesthetized by an i.p. application of 100 mg/kg ketamine and 5 mg/kg xylazine. Five minutes after i.v. and 60 minutes after i.p. or s.c. peptide or peptide derivative administration 0.5 cm of the tail tip is ablated. Blood dropping from the wound is collected in tubes containing 5.0 ml 0.04% NH3 for defined time periods, such as 0-2 minutes, 2-4 minutes, 4-6 minutes, 6-8, 8-10, 10-12, 12-14, 14-16, 16-20, 20-24, 24-28, 28-32, 32-42, 42-52 and 52-62 minutes. Blood cells in each tube are disrupted and hemoglobin is extracted by a three hour incubation period at room temperature followed by ultrasound treatment. The absorbance at 414 nm and 620 nm of the extracts is determined in micro titre plates. 620 nm is a reference wavelength and the A620 reading is subtracted from the A414 reading. The amount of blood in the extract corresponding to the subtracted reading is calculated from a standard curve created by known amounts of blood from wild type control mice, such as C57/BI6 mice. Parameters of the bleeding characteristics of the mice to be recorded are total blood loss, bleeding rate, bleeding time, 1 h, 2 h, 3 h, 4 h, 24 h and 48 h survival. Cumulative blood loss is calculated by summing up the amounts of blood for each time period. Data for the animals of a group are averaged and plotted against bleeding time. At each time point data sets for treatment and vehicle control groups are analysed by Student's t-test for statistical significance.\nParameters quantified were total blood loss, bleeding time, bleeding rate and survival.\nBlood loss was monitored in the tail clip assay as described in the specific description for 62 minutes after tail clip. FVIII−/− mice were administered with rFVIII (Advate®) at 25, 50 or 100 U/kg i.v. or with vehicle alone. […] As a control, C57BI/6 mice were administered vehicle alone.\nVehicle was 5% DMSO, 5% Cremophor EL, 0.05% Tween 80 in water for injection."}, "in vitro [2]": {"experiment": "in vitro", "details": "mouse, pH 7.4"}, "mouse serum albumin": {"molecular_target": "mouse serum albumin (Mus musculus, UniProt P07724)", "sequence (P07724 25-608)": "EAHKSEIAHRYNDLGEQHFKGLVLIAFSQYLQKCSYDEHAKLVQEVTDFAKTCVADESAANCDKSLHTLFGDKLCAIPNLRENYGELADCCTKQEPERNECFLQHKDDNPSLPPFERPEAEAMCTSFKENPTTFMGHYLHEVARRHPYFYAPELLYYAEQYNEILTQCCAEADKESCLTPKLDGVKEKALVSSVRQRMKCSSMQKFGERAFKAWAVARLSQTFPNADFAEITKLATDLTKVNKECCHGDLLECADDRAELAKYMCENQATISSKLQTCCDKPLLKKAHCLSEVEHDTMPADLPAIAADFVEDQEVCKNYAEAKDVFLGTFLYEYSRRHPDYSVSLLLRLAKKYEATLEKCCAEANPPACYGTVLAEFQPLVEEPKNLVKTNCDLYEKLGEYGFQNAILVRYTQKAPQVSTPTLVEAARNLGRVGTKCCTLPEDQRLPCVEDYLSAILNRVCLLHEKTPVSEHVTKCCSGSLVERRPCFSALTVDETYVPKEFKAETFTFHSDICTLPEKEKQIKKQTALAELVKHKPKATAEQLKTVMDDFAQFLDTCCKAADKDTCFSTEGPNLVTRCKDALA", "experiment": "in vitro", "details": "pH 7.4"}},
  "data": [
    {"substance": "Ac-RMKFDVWDLYFEIVW-NH2 [Peptide A01]", "values": [
      {"measurement": "recovery at 6 h, 5 μM", "setting": "in vitro [1]", "result": "> 88.6", "unit": "%"},
      {"measurement": "fraction unbound at 6 h, 5 μM", "setting": "in vitro [1]; plasma", "result": "< 0.017"},
      {"measurement": "Survival vs vehicle alone", "setting": "FIX−/− mice; 20 mg/kg i.v.", "result": "no significant difference"},
      {"measurement": "Mean volume of blood loss following tail clip compared to vehicle control", "setting": "FIX−/− mice; 20 mg/kg i.v. five minutes before tail clip, any time points", "result": "not significantly different"},
      {"measurement": "Effect in FIX−/− mice", "setting": "FIX−/− mice; conclusion", "result": "no effect"},
      {"measurement": "Survival vs vehicle control", "setting": "FVIII−/− (E17) mice; 20 mg/kg i.v.", "result": "statistically significant longer survival"},
      {"measurement": "Mean volume of blood loss following tail clip compared to vehicle control", "setting": "FVIII−/− (E17) mice; 20 mg/kg i.v. five minutes before tail clip, p<0.05 at most time points", "result": "significantly different"},
      {"measurement": "p of difference in mean blood loss vs vehicle", "setting": "FVIII−/− (E17) mice; 20 mg/kg i.v., at 52 and 62 minutes after tail clip", "result": "< 0.01"},
      {"measurement": "Survival (%) 2 hours", "setting": "FVIII−/− (E17) mice; FVIII−/− mice, 20 mg/kg i.v. five minutes before tail clip, 2 hours (Table 26)", "result": 56, "unit": "%"},
      {"measurement": "Survival (%) 4 hours", "setting": "FVIII−/− (E17) mice; FVIII−/− mice, 20 mg/kg i.v. five minutes before tail clip, 4 hours (Table 26)", "result": 25, "unit": "%"},
      {"measurement": "Survival (%) 24 hours", "setting": "FVIII−/− (E17) mice; FVIII−/− mice, 20 mg/kg i.v. five minutes before tail clip, 24 hours (Table 26)", "result": 6, "unit": "%"},
      {"measurement": "Survival (%) 48 hours", "setting": "FVIII−/− (E17) mice; FVIII−/− mice, 20 mg/kg i.v. five minutes before tail clip, 48 hours (Table 26)", "result": 0, "unit": "%"},
      {"measurement": "Survival (%) 2 hours", "setting": "FVIII−/− (E17) mice; FVIII−/− mice, Exp 1, 20 mg/kg i.v., tail clip, 2 hours", "result": 56, "unit": "%"},
      {"measurement": "Survival (%) 3 hours", "setting": "FVIII−/− (E17) mice; FVIII−/− mice, Exp 1, 20 mg/kg i.v., tail clip", "result": 44, "unit": "%"},
      {"measurement": "Survival (%) 4 hours", "setting": "FVIII−/− (E17) mice; FVIII−/− mice, Exp 1, 20 mg/kg i.v., tail clip, 4 hours", "result": 25, "unit": "%"},
      {"measurement": "Survival (%) 24 hours", "setting": "FVIII−/− (E17) mice; FVIII−/− mice, Exp 1, 20 mg/kg i.v., tail clip, 24 hours", "result": 6, "unit": "%"},
      {"measurement": "Survival (%) 2 hours", "setting": "FVIII−/− (E17) mice; FVIII−/− mice, Exp 2 (repeat), 20 mg/kg i.v., tail clip, 2 hours", "result": 63, "unit": "%"},
      {"measurement": "Survival (%) 3 hours", "setting": "FVIII−/− (E17) mice; FVIII−/− mice, Exp 2 (repeat), 20 mg/kg i.v., tail clip", "result": 38, "unit": "%"},
      {"measurement": "Survival (%) 4 hours", "setting": "FVIII−/− (E17) mice; FVIII−/− mice, Exp 2 (repeat), 20 mg/kg i.v., tail clip, 4 hours", "result": 31, "unit": "%"},
      {"measurement": "Survival (%) 24 hours", "setting": "FVIII−/− (E17) mice; FVIII−/− mice, Exp 2 (repeat), 20 mg/kg i.v., tail clip, 24 hours", "result": 13, "unit": "%"},
      {"measurement": "Total blood loss (% of Vehicle)", "setting": "FVIII−/− (E17) mice; FVIII−/− mice, female, 20 mg/kg i.p., 0.5 cm tail clip", "result": "72 % of Vehicle"},
      {"measurement": "Survival 2 hours (%)", "setting": "FVIII−/− (E17) mice; FVIII−/− mice, female, 20 mg/kg i.p., 0.5 cm tail clip, 2 hours", "result": 75, "unit": "%"},
      {"measurement": "Survival 4 hours (%)", "setting": "FVIII−/− (E17) mice; FVIII−/− mice, female, 20 mg/kg i.p., 0.5 cm tail clip, 4 hours", "result": 25, "unit": "%"},
      {"measurement": "Survival 24 hours (%)", "setting": "FVIII−/− (E17) mice; FVIII−/− mice, female, 20 mg/kg i.p., 0.5 cm tail clip, 24 hours", "result": 25, "unit": "%"},
      {"measurement": "Survival 2 hours (%)", "setting": "FVIII−/− (E17) mice; FVIII−/− mice, female, 20 mg/kg i.v., 1 cm tail clip, 2 hours", "result": 80, "unit": "%"},
      {"measurement": "Survival 24 hours (%)", "setting": "FVIII−/− (E17) mice; FVIII−/− mice, female, 20 mg/kg i.v., 1 cm tail clip, 24 hours", "result": 10, "unit": "%"},
      {"measurement": "Total blood loss (% of Vehicle)", "setting": "FVIII−/− (E17) mice; FVIII−/− mice, male, 20 mg/kg i.p., 0.5 cm tail clip", "result": "83 % of Vehicle"},
      {"measurement": "Survival 2 hours (%)", "setting": "FVIII−/− (E17) mice; FVIII−/− mice, male, 20 mg/kg i.p., 0.5 cm tail clip, 2 hours", "result": 38, "unit": "%"},
      {"measurement": "Survival 4 hours (%)", "setting": "FVIII−/− (E17) mice; FVIII−/− mice, male, 20 mg/kg i.p., 0.5 cm tail clip, 4 hours", "result": 25, "unit": "%"},
      {"measurement": "Survival 24 hours (%)", "setting": "FVIII−/− (E17) mice; FVIII−/− mice, male, 20 mg/kg i.p., 0.5 cm tail clip, 24 hours", "result": 25, "unit": "%"},
      {"measurement": "Survival 2 hours (%)", "setting": "FVIII−/− (E17) mice; FVIII−/− mice, male, 20 mg/kg i.v., 1 cm tail clip, 2 hours", "result": 20, "unit": "%"},
      {"measurement": "Survival 24 hours (%)", "setting": "FVIII−/− (E17) mice; FVIII−/− mice, male, 20 mg/kg i.v., 1 cm tail clip, 24 hours", "result": 0, "unit": "%"},
      {"measurement": "Compensation for lack of FVIII (reducing blood loss, increasing survival following tail clip)", "setting": "FVIII−/− (E17) mice; conclusion", "result": "at least partially compensate for the lack of FVIII"},
      {"measurement": "Gender effect on efficacy", "setting": "FVIII−/− (E17) mice; i.v., tail clip 1 cm", "result": "more effective in female than male mice"},
      {"measurement": "Difference in survival curves vs vehicle", "setting": "FVIII−/− (E17) mice; male mice, 20 mg/kg i.p., 0.5 cm tail clip", "result": "no statistically significant difference"},
      {"measurement": "Bleeding and survival in two independently performed experiments", "setting": "FVIII−/− (E17) mice; repeat experiment", "result": "bleed less and survive longer"},
      {"measurement": "Activity in the tail clip assay", "setting": "FVIII−/− (E17) mice; summary", "result": "possessing activity"},
      {"measurement": "recovery at 6 h, 5 μM", "setting": "in vitro [2]", "result": "> 73.3", "unit": "%"},
      {"measurement": "fraction unbound at 6 h, 5 μM", "setting": "in vitro [2]; plasma", "result": "< 0.008"},
      {"measurement": "fraction unbound at 6 h, 5 μM", "setting": "mouse serum albumin", "result": "< 0.003"},
      {"measurement": "recovery at 6 h, 5 μM", "setting": "mouse serum albumin", "result": "> 103", "unit": "%"}
    ]}
  ]
}
